The structures appear in SMILES notation.

Chain of Cytochrome P450 3A4 (P08684 whole entry): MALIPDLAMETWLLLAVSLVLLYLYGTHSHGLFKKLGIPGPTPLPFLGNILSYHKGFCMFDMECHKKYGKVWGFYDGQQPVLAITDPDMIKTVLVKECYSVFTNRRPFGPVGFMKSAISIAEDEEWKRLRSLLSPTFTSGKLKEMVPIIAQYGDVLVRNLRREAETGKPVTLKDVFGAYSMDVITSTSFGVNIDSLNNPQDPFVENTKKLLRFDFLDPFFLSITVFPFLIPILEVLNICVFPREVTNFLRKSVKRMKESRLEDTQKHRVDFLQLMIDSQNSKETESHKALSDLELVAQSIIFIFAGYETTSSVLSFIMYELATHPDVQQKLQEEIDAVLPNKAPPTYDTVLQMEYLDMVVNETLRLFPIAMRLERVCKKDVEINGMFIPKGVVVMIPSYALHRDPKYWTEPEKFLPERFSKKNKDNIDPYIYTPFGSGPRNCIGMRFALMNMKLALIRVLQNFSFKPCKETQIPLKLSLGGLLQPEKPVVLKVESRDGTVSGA

Tested on in one data set: not listed separately
Put plainly: Metabolic stability in rat liver microsomes assessed as half life. It is filed as ADME, Microsome.
For `COc1ccc(C(NC(=O)COc2cccnc2)c2cc(Cl)c3cccnc3c2O)cc1` (configuration not stated), the half-life is 16 min.

As to `Cc1cc(C(NC(=O)COc2ccccc2)c2cccc([N+](=O)[O-])c2)c(O)c2ncccc12` (configuration not stated), the half-life came to 6 min.

As to `CC(=O)Nc1ccc(NCC(=O)NC(c2cccc([N+](=O)[O-])c2)c2cc(Cl)c3cccnc3c2O)cc1` (configuration not stated), the half-life was 30 min.

For the compound `CN(CC(=O)NC(c1cccc(F)c1)c1cc(Cl)c2cccnc2c1O)Cc1ccccc1` (configuration not stated), the half-life stood at 16 min.

Regarding `Cc1cc(NCC(=O)NC(c2ccccc2Cl)c2cc(Cl)c3cccnc3c2O)ccc1Cl` (configuration not stated), the half-life was 8 min.

Take `CN(CC(=O)NC(c1ccccc1Cl)c1cc(Cl)c2cccnc2c1O)Cc1ccccc1` (configuration not stated): the half-life came out at 5 min.

Consider `Cc1ccc(C(NC(=O)CN(C)c2ccccc2)c2cc(Cl)c3cccnc3c2O)cc1` (configuration not stated), for which the half-life is 6 min.

As for `Cc1ccc(C(NC(=O)CNCc2ccccc2)c2cc(Cl)c3cccnc3c2O)cc1` (configuration not stated), the half-life amounted to 10 min.

Consider `O=C(COCc1ccccc1)NC(c1cccc(F)c1)c1cc(Cl)c2cccnc2c1O` (configuration not stated), for which the half-life turned out to be 24 min.

On to `Cc1ccc(C(NC(=O)CN(C)Cc2ccccc2)c2cc(Cl)c3cccnc3c2O)cc1` (configuration not stated), for which the half-life was 16 min.

In the case of `O=C(COc1ccccc1)NC(c1ccccc1[N+](=O)[O-])c1cc(Cl)c2cccnc2c1O` (configuration not stated), the half-life was determined as 5 min.

Another data set has as its target Cytochrome P450 3A4 (Homo sapiens, UniProt P08684). Description: Inhibition of CYP3A4 at 30 uM by FRET assay. It is filed as ADME.
For `CN(CC(=O)NC(c1ccccc1Cl)c1cc(Cl)c2cccnc2c1O)c1ccccc1` (configuration not stated), the inhibition (INH) turned out to be 34%.

In the case of `O=C(COc1ccccc1)NC(c1ccccc1)c1ccc2cccnc2c1O` (configuration not stated), the inhibition (INH) is 56%.

As to `CC(=O)Nc1ccc(OCC(=O)NC(c2cccc(F)c2)c2cc(Cl)c3cccnc3c2O)cc1` (configuration not stated), the inhibition (INH) was 31%.

Compound `COc1ccc(C(NC(=O)COc2cccnc2)c2cc(Cl)c3cccnc3c2O)cc1` (configuration not stated) displayed an inhibition (INH) of 33%.

As to `Cc1ccc(C(NC(=O)CNc2ccc(Cl)c(C)c2)c2cc(Cl)c3cccnc3c2O)cc1` (configuration not stated), the inhibition (INH) worked out at 12%.

Compound `O=C(CNCc1ccccc1)NC(c1cccc(F)c1)c1cc(Cl)c2cccnc2c1O` (configuration not stated) registered an inhibition (INH) of 32%.

`CN(C)c1cccc(OCC(=O)NC(c2ccccc2Cl)c2cc(Cl)c3cccnc3c2O)c1` (configuration not stated): the inhibition (INH) amounted to 38%.

`Cc1ccccc1C(NC(=O)COc1ccccc1)c1cc(Cl)c2cccnc2c1O` (configuration not stated) registered an inhibition (INH) of 10%.

Compound `N#Cc1ccccc1C(NC(=O)COc1ccccc1)c1cc(Cl)c2cccnc2c1O` (configuration not stated) had an inhibition (INH) of 26%.

In the case of `COc1ccc(C(NC(=O)COc2ccc(Oc3ccccc3)cc2)c2cc(Cl)c3cccnc3c2O)cc1` (configuration not stated), the inhibition (INH) came out at 21%.

As to `COc1ccc(C(NC(=O)COc2ccc(NC(C)=O)cc2)c2cc(Cl)c3cccnc3c2O)cc1` (configuration not stated), the inhibition (INH) was found to be 37%.

`Cc1cc(C(NC(=O)COc2ccccc2)c2cccc([N+](=O)[O-])c2)c(O)c2ncccc12` (configuration not stated) came in with an inhibition (INH) of 33%.

In the case of `O=C(COc1ccccc1)NC(c1ccccc1Cl)c1cc(Br)c2cccnc2c1O` (configuration not stated), the inhibition (INH) turned out to be 33%.

Compound `O=C(COc1ccccc1)NC(c1ccccc1)c1cc(Cl)c2cccnc2c1O` (configuration not stated) gave an inhibition (INH) of 5%.

As to `Cc1ccc(C(NC(=O)CNc2ccc(C#N)cc2)c2cc(Cl)c3cccnc3c2O)cc1` (configuration not stated), the inhibition (INH) was determined as 29%.

In the case of `CC(=O)Nc1ccc(NCC(=O)NC(c2cccc([N+](=O)[O-])c2)c2cc(Cl)c3cccnc3c2O)cc1` (configuration not stated), the inhibition (INH) came to 8%.

As for `CN(CC(=O)NC(c1cccc(F)c1)c1cc(Cl)c2cccnc2c1O)Cc1ccccc1` (configuration not stated), the inhibition (INH) came to 32%.

As to `O=C(COc1ccccc1)NC(c1ccccc1Cl)c1cc([N+](=O)[O-])c2cccnc2c1O` (configuration not stated), the inhibition (INH) came out at 35%.

`CC(=O)c1ccc(OCC(=O)NC(c2cccc([N+](=O)[O-])c2)c2cc(Cl)c3cccnc3c2O)cc1` (configuration not stated) yielded an inhibition (INH) of 18%.

`Cc1cc(NCC(=O)NC(c2cccc([N+](=O)[O-])c2)c2cc(Cl)c3cccnc3c2O)ccc1Cl` (configuration not stated) returned an inhibition (INH) of 17%.

Take `CN(C)c1cccc(OCC(=O)NC(c2cccc(F)c2)c2cc(Cl)c3cccnc3c2O)c1` (configuration not stated): the inhibition (INH) amounted to 53%.

For the compound `Cc1cc(NCC(=O)NC(c2ccccc2Cl)c2cc(Cl)c3cccnc3c2O)ccc1Cl` (configuration not stated), the inhibition (INH) is 11%.

In turn, `O=C(COc1ccccc1)NC(c1cccc([N+](=O)[O-])c1)c1cc(Br)c2cccnc2c1O` (configuration not stated) came in with an inhibition (INH) of 38%.

`O=C(COc1ccccc1)NC(c1ccccc1C(F)(F)F)c1cc(Cl)c2cccnc2c1O` (configuration not stated): the inhibition (INH) was 37%.

The compound `CN(CC(=O)NC(c1ccccc1Cl)c1cc(Cl)c2cccnc2c1O)Cc1ccccc1` (configuration not stated) showed an inhibition (INH) of 16%.

For `Cc1ccc(C(NC(=O)COCc2ccccc2)c2cc(Cl)c3cccnc3c2O)cc1` (configuration not stated), the inhibition (INH) was 45%.

`O=C(COc1cccnc1)NC(c1cccc([N+](=O)[O-])c1)c1cc(Cl)c2cccnc2c1O` (configuration not stated) showed an inhibition (INH) of 67%.

On to `Cc1ccc(C(NC(=O)CN(C)c2ccccc2)c2cc(Cl)c3cccnc3c2O)cc1` (configuration not stated), for which the inhibition (INH) was found to be 20%.

As for `O=C(CNCc1ccccc1)NC(c1ccccc1Cl)c1cc(Cl)c2cccnc2c1O` (configuration not stated), the inhibition (INH) came out at 36%.

The compound `Cc1ccc(OCC(=O)NC(c2ccccc2)c2cc(Cl)c3cccnc3c2O)cc1` (configuration not stated) returned an inhibition (INH) of 69%.

Compound `O=C(COc1ccccc1)NC(c1ccccc1)c1cc(F)c2cccnc2c1O` (configuration not stated) displayed an inhibition (INH) of 22%.

`O=C(COc1ccccc1)NC(c1cccc(F)c1)c1cc(Cl)c2cccnc2c1O` (configuration not stated) had an inhibition (INH) of 57%.

As to `CN(CC(=O)NC(c1cccc([N+](=O)[O-])c1)c1cc(Cl)c2cccnc2c1O)Cc1ccccc1` (configuration not stated), the inhibition (INH) was 20%.

`Cc1ccc(C(NC(=O)CNCc2ccccc2)c2cc(Cl)c3cccnc3c2O)cc1` (configuration not stated): the inhibition (INH) is 29%.

With `Cc1cc(C(NC(=O)COc2ccccc2)c2ccccc2Cl)c(O)c2ncccc12` (configuration not stated), the inhibition (INH) was 55%.

Regarding `O=C(COCc1ccccc1)NC(c1cccc(F)c1)c1cc(Cl)c2cccnc2c1O` (configuration not stated), the inhibition (INH) is 46%.

For `Cc1ccc(C(NC(=O)CN(C)Cc2ccccc2)c2cc(Cl)c3cccnc3c2O)cc1` (configuration not stated), the inhibition (INH) came out at 30%.

As for `O=C(COc1ccccc1)NC(c1ccccc1[N+](=O)[O-])c1cc(Cl)c2cccnc2c1O` (configuration not stated), the inhibition (INH) worked out at 38%.

`O=C(COc1ccccc1)NC(c1ccc(Cl)cc1)c1cc(Cl)c2cccnc2c1O` (configuration not stated) registered an inhibition (INH) of 38%.

In turn, `COc1ccc(C(NC(=O)COc2ccc(C)cc2)c2cc(Cl)c3cccnc3c2O)cc1` (configuration not stated) yielded an inhibition (INH) of 78%.

`CN(CC(=O)NC(c1cccc(F)c1)c1cc(Cl)c2cccnc2c1O)c1ccccc1` (configuration not stated) gave an inhibition (INH) of 41%.

`O=C(COc1cc(Cl)cc(Cl)c1)NC(c1cccc([N+](=O)[O-])c1)c1cc(Cl)c2cccnc2c1O` (configuration not stated) came in with an inhibition (INH) of 20%.

`Cc1cc(OCC(=O)NC(c2ccccc2Cl)c2cc(Cl)c3cccnc3c2O)ccc1Cl` (configuration not stated) registered an inhibition (INH) of 30%.

Regarding `COc1ccc(C(NC(=O)COc2cccc(N(C)C)c2)c2cc(Cl)c3cccnc3c2O)cc1` (configuration not stated), the inhibition (INH) worked out at 56%.

`O=C(COc1ccccc1)NC(c1ccccc1)c1cc([N+](=O)[O-])c2cccnc2c1O` (configuration not stated) returned an inhibition (INH) of 20%.

`O=C(COc1ccc(Cl)cc1)NC(c1ccccc1)c1cc(Cl)c2cccnc2c1O` (configuration not stated): the inhibition (INH) is 2%.

`O=C(COc1ccccc1)NC(c1ccc([N+](=O)[O-])cc1)c1cc(Cl)c2cccnc2c1O` (configuration not stated) registered an inhibition (INH) of 13%.

As to `O=C(COc1cccnc1)NC(c1cccc(F)c1)c1cc(Cl)c2cccnc2c1O` (configuration not stated), the inhibition (INH) came to 35%.

Turning to `Cc1ccc(C(NC(=O)CNc2cccc(N(C)C)c2)c2cc(Cl)c3cccnc3c2O)cc1` (configuration not stated), the inhibition (INH) came to 37%.

As to `COc1ccc(C(NC(=O)COc2ccccc2)c2cc(Cl)c3cccnc3c2O)cc1` (configuration not stated), the inhibition (INH) was found to be 54%.

In turn, `CC(C)(C)c1ccc(OCC(=O)NC(c2ccccc2Cl)c2cc(Cl)c3cccnc3c2O)cc1` (configuration not stated) yielded an inhibition (INH) of 10%.

`CC(=O)Nc1ccc(OCC(=O)NC(c2ccccc2Cl)c2cc(Cl)c3cccnc3c2O)cc1` (configuration not stated) displayed an inhibition (INH) of 4%.

The compound `O=C(COc1ccccc1)NC(c1ccccc1F)c1cc(Cl)c2cccnc2c1O` (configuration not stated) displayed an inhibition (INH) of 24%.

Take `Cc1cc(NCC(=O)NC(c2cccc(F)c2)c2cc(Cl)c3cccnc3c2O)ccc1Cl` (configuration not stated): the inhibition (INH) was determined as 14%.

`CC(=O)c1ccc(NCC(=O)NC(c2cccc([N+](=O)[O-])c2)c2cc(Cl)c3cccnc3c2O)cc1` (configuration not stated) registered an inhibition (INH) of 27%.

In turn, `Cc1ccc(C(NC(=O)COc2ccccc2)c2cc(Cl)c3cccnc3c2O)cc1` (configuration not stated) displayed an inhibition (INH) of 45%.
